Test results from patent publication US20230091810A1, “FIRST-IN-CLASS OF SHMT2 AND MTHFD2 INHIBITORS AS ANTITUMOR AGENTS” (Duquesne University of the Holy Spirit, priority 2017, published 2023).

Columns and labels:
SHMT2 = target: T1, SHMT2 (Homo sapiens, UniProt P34897); assay: in vitro inhibition of purified SHMT2, coupled SHMT2-MTHFD2 assay with NADH readout; settings: purified N-terminally His-tagged enzyme; compounds as monoglutamates; * designates one experiment
T1 sequence (P34897 30-504): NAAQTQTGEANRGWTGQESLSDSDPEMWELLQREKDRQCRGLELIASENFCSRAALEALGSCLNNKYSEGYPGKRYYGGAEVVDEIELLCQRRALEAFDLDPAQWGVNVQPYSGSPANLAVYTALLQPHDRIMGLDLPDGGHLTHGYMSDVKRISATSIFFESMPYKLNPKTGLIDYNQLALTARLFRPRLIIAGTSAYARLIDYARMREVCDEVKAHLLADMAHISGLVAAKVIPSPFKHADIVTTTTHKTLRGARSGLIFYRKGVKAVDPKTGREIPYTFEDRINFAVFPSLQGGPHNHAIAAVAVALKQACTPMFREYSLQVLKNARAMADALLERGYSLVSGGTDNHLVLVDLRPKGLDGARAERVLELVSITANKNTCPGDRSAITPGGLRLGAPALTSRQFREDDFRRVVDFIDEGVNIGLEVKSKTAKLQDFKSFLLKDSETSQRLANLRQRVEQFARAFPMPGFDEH

H460 cells = assay: glycine/nucleoside protection of growth inhibition in H460 cells; format: cell-based, human
Experimental: We also tested the protective effects of AICA (320 µM) which is metabolized to AICAR (ZMP) (AICARFTase substrate), thus circumventing the GARFTase step in de novo purine biosynthesis (27) (see FIG. 1). […] Analogous results were obtained with HCT116 and MIA PaCa-2 tumor cells (see FIG. 14).
(§1) For proliferation assays of the HCT116, H460, and MIA PaCa2 tumor cell lines, the cells were plated in 96-well plates in an identical manner to the CHO experiments, except that the maximal drug concentration was increased to 10 µM. Glycine/nucleoside protection experiments in CHO and tumor cell lines were performed in folate- and glycine-free RPMI 1640/10% dialyzed fetal bovine serum supplemented with 25 nM leucovorin without additions, or in the presence of adenosine (60 µM), thymidine (10 µM), glycine (130 µM) and/or 5-aminoimidazole-4-carboxamide (AICA) (320 µM). Growth of metabolite-treated cells was normalized to controls treated with metabolites and vehicle (i.e., DMSO) both singly and in combination. Treatments with all metabolites were performed in parallel on the same plate for a given drug.

HPAC (PaC) = assay: proliferation assay, HPAC pancreatic cancer cells; format: cell-based, human; settings: folate-/glycine-free RPMI1640 with 25 nM leucovorin; read-out: IC50s (SE) HPAC (PaC)
Experimental: (§2) Proliferation assays were performed with engineered Chinese hamster ovary (CHO) cell lines R2 (transporter-null), PC43-10 (expresses RFC only), RT16 (FRα only), and R2/PCFT4 (PCFT only) cultured in folate-/glycine-free RPMI1640 supplemented with 25 nM leucovorin. Additional results are shown for HCT116 (colon tumor cells (CTC)), IGROV1 (epithelial ovarian cancer (EOC) cells), H460 (non-small cell lung cancer (NSCLC) cells), MIAPaCa-2 (pancreatic cancer (PaC) cells), and HPAC (PaC).
as §1

MIA PaCa-2 (PaC) = assay: proliferation assay, MIA PaCa-2 pancreatic cancer cells; format: cell-based, human; settings: folate-/glycine-free RPMI1640 with 25 nM leucovorin; 96 h; read-out: IC50s (SE) MIA PaCa-2 (PaC)
Experimental: as §2
(§3) Cell culture and proliferation/protection assays. The HCT116 cell lines including the serine hydroxymethyltransferase (SHMT) 1, SHMT2, and methylene THF dehydrogenase 2 (MTHFD2) knockout (KO) cells were previously described (47,53). The H460 cell line was obtained from the American Type Culture Collection (Manassas, VA), whereas the MIA PaCa-2 cells were provided by Dr. Yubin Ge (Karmanos Cancer Institute). Cell lines were verified by STR analysis by Genetica DNA Laboratories (Burlington, NC). MTXRIIOua^R2-4 (i.e. R2) Chinese hamster ovary (CHO) cells were generously provided by Dr. Wayne Flintoff (University of Western Ontario) (54). From this parental R2 cell line, human RFC and PCFT were individually transfected to generate the isogenic CHO cell lines designated PC43-10 (RFC) and R2/PCFT4 (PCFT) (55-57). Human tumor cell lines were cultured in folate-free RPMI supplemented with 10% dialyzed fetal bovine serum (Sigma-Aldrich), 1% penicillin/streptomycin solution, 2 mM L-glutamine, and 25 nM leucovorin in a humidified atmosphere at 37° C. in the presence of 5% CO2 and 95% air. The CHO cell lines were cultured in alpha-minimal essential medium (alpha-MEM) supplemented with 10% bovine calf serum, 1% penicillin/streptomycin solution, and 2 mM L-glutamine. Additionally, the transfected CHO cell lines (i.e. R2/PCFT4 and PC43-10) were maintained under continuous selection with 1 mg/ml of G418.
as §1

RT16 (FR alpha) (CHO) = assay: proliferation assay, RT16 CHO cells expressing FR alpha only; format: cell-based, Chinese hamster; settings: folate-/glycine-free RPMI1640 with 25 nM leucovorin; 96 h; read-out: IC50s (SE) RT16 (FR alpha) (CHO)
Experimental: as §2
(§4) For proliferation assays with the CHO cell lines, the cells were treated with drugs (0-1 µM) in a 96-well plate (2000 cells/well) in glycine-free, nucleoside-free folate-free RPMI supplemented with 10% dialyzed fetal bovine serum, 1% penicillin/streptomycin, 2 mM L-glutamine, and 25 nM leucovorin (final volume 200 µL) over a 96 h incubation period at 37° C. with 5% CO2. The drugs were dissolved in DMSO; an equivalent amount of DMSO was added to the control (no addition) samples. To quantify viable cells, the media was removed and plates were washed once with 100 µL Dulbecco’s Phosphate-Buffered Saline (PBS), after which 100 µL PBS and 20 µL Cell Titer-blue (Promega) were added. Relative cell numbers were proportional to the fluorescence measured with a fluorescence plate reader (590 nm emission, 560 nm excitation). Background fluorescence (cell-free wells treated with Cell Titer-blue) was subtracted and these corrected values were normalized to results for cells treated in an identical manner without drugs.

IGROV1 (EOC) = assay: proliferation assay, IGROV1 epithelial ovarian cancer cells; format: cell-based, human; settings: folate-/glycine-free RPMI1640 with 25 nM leucovorin; read-out: IC50s (SE) IGROV1 (EOC)
Experimental: as §2, §1

PC43-10 (RFC) (CHO) = assay: proliferation assay, PC43-10 CHO cells expressing RFC only; format: cell-based, Chinese hamster; settings: folate-/glycine-free RPMI1640 with 25 nM leucovorin; 96 h; drug 0-1000 nM; read-out: IC50s (SE) PC43-10 (RFC) (CHO)
Experimental: as §2, §3
as §4, with “The drugs were dissolved in DMSO; an equivalent amount of DMSO was added to the control (no addition) samples.” left out

[1] = tested on: human MIA PaCa-2 pancreatic adenocarcinoma xenografts; assay: in vivo efficacy trial with MIA PaCa-2 pancreatic cancer xenografts; parameters: species or system SCID mice
Experimental: Female ICR SCID mice (10 weeks old; 19 g average body weight) were implanted bilaterally with human MIA PaCa-2 tumors. […] The mice were weighed and tumors were measured with a caliper two-to-three times weekly; mice were sacrificed when the cumulative tumor burden reached 1500 mg. Tumor weights were estimated from two-dimensional measurements, where tumor mass (in mg) = (a x b^2)/2, and a and b are the tumor length and width in mm, respectively. The tumor masses from both tumors on each mouse were added together, and the total mass per mouse was used for calculations of anti-tumor activity. Quantitative end-points include: (i) tumor growth delay [T-C, where T is the median time in days required for the treatment group tumors to reach a predetermined size (e.g., 1000 mg), and C is the median time in days for the control group tumors to reach the same size; tumor-free survivors are excluded from these calculations]; and (ii) T/C (in percent) when treatment (T) and control (C) groups for the control groups reached 700 mg in size (exponential growth phase). The median value of each group was determined (including zeros). Mouse weights were monitored as a gauge of drug toxicity.
Female ICR SCID mice (10 weeks old; 19 g average body weight) were implanted bilaterally with human MIA PaCa-2 PaC tumors.
In vivo efficacy trial with MIA PaCa-2 pancreatic cancer xenografts. Methods for in vivo maintenance of MIA PaCa-2 tumor xenografts and drug efficacy evaluations are analogous to those previously described (58, 62-67). MIA PaCa-2 human pancreatic cancer cells (5 × 10^6 cells/flank) were bilaterally implanted subcutaneously with tumor fragments (30-60 mg) with a 12-gauge trocar in female […] SCID mice (NCI Animal Production Program). The mice were 10 weeks old on day 0 (tumor implant) with an average body weight of 19 g. For the efficacy trial, the mice were maintained on either a folate-deficient diet from Harlan-Teklad (TD.00434) starting 14 days before subcutaneous tumor implant to ensure serum folate levels would approximate those of humans. A separate cohort of mice was fed a folate-replete control diet from Lab Diet (5021). Mice were supplied with food and water ad libitum. Serum folate concentrations were monitored prior to tumor implant and post study by Lactobacillus casei bioassay (68). The mice in each group (folate-deficient and standard diet) were pooled before unselective distribution to the treatment and control groups. […] The drugs were dissolved in 5% ethanol (v/v), 1% Tween-80 (v/v), and 0.5% NaHCO3 and were administered intravenously (0.2 ml/injection). The mice were weighed and tumors were measured with a caliper two-to-three times weekly; mice were sacrificed when the cumulative tumor burden reached 1500 mg. Tumor weights were estimated from two-dimensional measurements, where tumor mass (in mg) = (a × b^2)/2, and a and b are the tumor length and width in mm, respectively. The tumor masses from both tumors on each mouse were added together, and the total mass per mouse was used for calculations of anti-tumor activity. Quantitative end-points include: (i) tumor growth delay [T-C, where T is the median time in days required for the treatment group tumors to reach a predetermined size (e.g., 1000 mg), and C is the median time in days for the control group tumors to reach the same size; tumor-free survivors are excluded from these calculations]; and (ii) T/C (in percent) when treatment (T) and control (C) groups for the control groups reached 700 mg in size (exponential growth phase). The median value of each group was determined (including zeros). Mouse weights were monitored as a gauge of drug toxicity.

[2] = IV, AGF291 Q6dx3 start d3, total 23.5 mg/kg, Gemcitabine Q4dx4 start d3, total 480 mg/kg

SMILES: Nc1nc2[nH]c(CCCc3ccc(C(=O)N[C@@H](CCC(=O)O)C(=O)O)s3)cc2c(=O)[nH]1 [AGF94, reference compound]
- Ki SHMT2 (SHMT2): no inhibition
- protection from growth inhibition by AICA (H460 cells; AICA 320 µM): completely protective
- protection from growth inhibition by adenosine (H460 cells; adenosine 60 µM, up to 10 µM drug): fully protective
- protection from growth inhibition by glycine (H460 cells; glycine 130 µM): no effect

SMILES: Nc1nc2ccn(CCCc3ccc(C(=O)N[C@@H](CCC(=O)O)C(=O)O)c(F)c3)c2c(=O)[nH]1 [AGF359]
- IC50 (HPAC (PaC)): 167 nM
- IC50 (MIA PaCa-2 (PaC)): > 1000 nM
- IC50 (RT16 (FR alpha) (CHO)): 525 nM
- IC50 (IGROV1 (EOC)): 229 nM
- IC50 (PC43-10 (RFC) (CHO)): 233 nM

SMILES: Nc1ccn([C@@H]2O[C@H](CO)[C@@H](O)C2(F)F)c(=O)n1 [Gemcitabine, reference compound]
- Mean Body Weight Loss (g/mouse) [1, 2]: -2.4 g/mouse
- Percent Body Weight Loss [1, 2]: -12.2%
- median tumor burden on day 14 ([1]; day 14, control cohort 1321 mg): 255 mg
- Median Tumor Burden in mg on d16 (range) ([1]; day 16, IV, AGF291 total 23.5 mg/kg, Gemcitabine total 480 mg/kg): 445 (150-527) mg
- Tumor Free on d52 ([1]; day 52, mice tumor free/total): 0/5
- Tumor Growth Delay (T-C) ([1]; median T-C to reach 1000 mg, AGF291 total 23.5 mg/kg, Gemcitabine total 480 mg/kg): 7.5 days
- Time to 1000 mg in days (range) ([1]; median, IV, AGF291 total 23.5 mg/kg, Gemcitabine total 480 mg/kg): 20 (19-21) days
- weight loss (median nadir) ([1]; nadir on day 17 for AGF291, day 6 for GEM, completely reversible after cessation of therapy): 12%
- T/C% ([1]; treated/control median tumor burden, AGF291 7.75 mg/kg/inj Q6dx3, GEM 120 mg/kg/inj every 4 days, start day 3): 26%
